Results: ChEMBL document CHEMBL4706520, “Development of disulfide-derived fructose-1,6-bisphosphatase (FBPase) covalent inhibitors for the treatment of type 2 diabetes” (Eur J Med Chem, 2020)
Calls of active or inactive are those of the source. The calls are words filed in the database; no cut-off is given here.

How the values were obtained:
[1] = target: T1, Fructose-1,6-bisphosphatase 1 (Homo sapiens) (UniProt P09467); assay: Inhibition of wild-type full-length human liver FBPase expressed in Escherichia coli BL21 (DE3) using FBP as substrate at 10 uM by malachite green dye-based assay; assay type: single protein
T1 sequence (whole entry): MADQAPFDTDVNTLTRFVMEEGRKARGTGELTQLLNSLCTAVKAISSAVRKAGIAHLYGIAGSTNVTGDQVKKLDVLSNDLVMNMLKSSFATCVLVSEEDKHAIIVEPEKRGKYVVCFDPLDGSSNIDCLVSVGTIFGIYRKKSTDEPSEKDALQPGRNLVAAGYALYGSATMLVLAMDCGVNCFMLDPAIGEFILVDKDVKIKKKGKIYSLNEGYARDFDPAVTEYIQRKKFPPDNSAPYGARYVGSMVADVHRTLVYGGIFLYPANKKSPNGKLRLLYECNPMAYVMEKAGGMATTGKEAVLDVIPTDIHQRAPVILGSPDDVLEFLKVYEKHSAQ

Homo sapiens [2] = organism: Homo sapiens; assay: Selectivity index, ratio of IC50 for FBPase C179S mutant IC50 for FBPase WT (unknown origin)
Mus musculus [3] = assay: Suppression of blood glucose concentration in 12 hrs fasted ICR mouse model at 12.5 mg/kg, ip measured upto 120 mins after oral administration of glucose at 2 g/kg for 60 min by oral glucose tolerance test; assay type: functional, organism-based
Homo sapiens [4] = organism: Homo sapiens; assay: Selectivity index, ratio of IC50 for FBPase C92S mutant IC50 for FBPase WT (unknown origin)
Mus musculus [5] = assay: Suppression of blood glucose concentration in 12 hrs fasted db/db mouse model at 12.5 mg/kg, ip measured upto 120 mins after oral administration of glucose at 2 g/kg for 60 min by oral glucose tolerance test; assay type: functional, organism-based
Homo sapiens [6] = organism: Homo sapiens; assay: Selectivity index, ratio of IC50 for FBPase R254A mutant IC50 for FBPase WT (unknown origin)
Homo sapiens [7] = organism: Homo sapiens; assay: Selectivity index, ratio of IC50 for FBPase S124A mutant IC50 for FBPase WT (unknown origin)
Homo sapiens [8] = organism: Homo sapiens; assay: Selectivity index, ratio of IC50 for FBPase D127A mutant IC50 for FBPase WT (unknown origin)
Mus musculus [9] = assay: Suppression of blood glucose concentration in 12 hrs fasted ICR mouse model at 25 mg/kg, ip measured upto 120 mins after oral administration of glucose at 2 g/kg for 60 min by oral glucose tolerance test; assay type: functional, organism-based
Hepatocyte = assay: Inhibition of gluconeogenesis in C57BLKS mouse primary hepatocytes assessed as inhibition of glucose output measured after 6 hrs; assay type: functional, cell-based; conditions: dose 0.5-100 µmol/L
Homo sapiens [10] = organism: Homo sapiens; assay: Selectivity index, ratio of IC50 for FBPase Y258A mutant IC50 for FBPase WT (unknown origin)
Homo sapiens [11] = organism: Homo sapiens; assay: Selectivity index, ratio of IC50 for FBPase WT (unknown origin) to IC50 for FBPase […] mutant IC50 for FBPase WT (unknown origin)
Homo sapiens [12] = organism: Homo sapiens; assay: Selectivity index, ratio of IC50 for FBPase N125A mutant IC50 for FBPase WT (unknown origin)
Homo sapiens [13] = organism: Homo sapiens; assay: Selectivity index, ratio of IC50 for FBPase C128S mutant IC50 for FBPase WT (unknown origin)
Mus musculus [14] = assay: Hypoglycemic activity in 2 hrs fasted db/db mouse model assessed as reduction in blood glucose AUC at 12.5 mg/kg, ip measured upto 120 mins after oral administration of glucose at 2 g/kg for 60 min by oral glucose tolerance test; assay type: functional, organism-based
Homo sapiens [15] = organism: Homo sapiens; assay: Selectivity index, ratio of IC50 for FBPase C116S mutant IC50 for FBPase WT (unknown origin)
Homo sapiens [16] = organism: Homo sapiens; assay: Selectivity index, ratio of IC50 for FBPase R243A mutant IC50 for FBPase WT (unknown origin)
Homo sapiens [17] = organism: Homo sapiens; assay: Selectivity index, ratio of IC50 for FBPase C183S mutant IC50 for FBPase WT (unknown origin)
Homo sapiens [18] = organism: Homo sapiens; assay: Selectivity index, ratio of IC50 for FBPase C38S mutant IC50 for FBPase WT (unknown origin)
Mus musculus [19] = assay: Hypoglycemic activity in 2 hrs fasted db/db mouse model assessed as reduction in blood glucose AUC at 25 mg/kg, ip measured upto 120 mins after oral administration of glucose at 2 g/kg for 60 min by oral glucose tolerance test; assay type: functional, organism-based
[20] = target: T1, Fructose-1,6-bisphosphatase 1 (Homo sapiens); assay: Covalent binding affinity to FBPase WT (unknown origin) assessed as maximum peak absorption measured upto 45 mins by UV-visible spectroscopy (reference value: 283 nm); conditions: time min <=45
c1csc(SSc2nccs2)n1 [21] = assay: Covalent inhibition of FBPase C116S mutant (unknown origin) assessed as Vmax measured upto 45 mins by UV-visible spectrometry analysis; conditions: Homo sapiens
c1csc(SSc2nccs2)n1 [22] = assay: Covalent inhibition of FBPase R243A mutant (unknown origin) assessed as Vmax measured upto 45 mins by UV-visible spectrometry analysis; conditions: Homo sapiens; time min <=45
c1csc(SSc2nccs2)n1 [23] = assay: Covalent inhibition of FBPase D127A mutant (unknown origin) assessed as Vmax measured upto 45 mins by UV-visible spectrometry analysis; conditions: Homo sapiens; time min <=45
c1csc(SSc2nccs2)n1 [24] = assay: Covalent inhibition of FBPase N125A mutant (unknown origin) assessed as Vmax measured upto 45 mins by UV-visible spectrometry analysis; conditions: Homo sapiens; time min <=45
c1csc(SSc2nccs2)n1 [25] = assay: Covalent inhibition of FBPase S124A mutant (unknown origin) assessed as Vmax measured upto 45 mins by UV-visible spectrometry analysis; conditions: Homo sapiens; time min <=45
c1csc(SSc2nccs2)n1 [26] = assay: Covalent inhibition of FBPase R254A mutant (unknown origin) assessed as Vmax measured upto 45 mins by UV-visible spectrometry analysis; conditions: Homo sapiens; time min <=45
c1csc(SSc2nccs2)n1 [27] = assay: Covalent inhibition of FBPase C281S mutant (unknown origin) assessed as Vmax measured upto 45 mins by UV-visible spectrometry analysis; conditions: Homo sapiens; time min <=45
c1csc(SSc2nccs2)n1 [28] = assay: Covalent inhibition of FBPase C183S (unknown origin) assessed as Vmax measured upto 45 mins; conditions: Homo sapiens; time min <=45
c1csc(SSc2nccs2)n1 [29] = assay: Covalent inhibition of FBPase C38S mutant (unknown origin) assessed as Vmax measured at 45 mins by UV-visible spectrometry analysis; conditions: Homo sapiens
c1csc(SSc2nccs2)n1 [30] = assay: Covalent inhibition of FBPase C179S mutant (unknown origin) assessed as Vmax measured upto 45 mins by UV-visible spectrometry analysis; conditions: Homo sapiens; time min <=45
c1csc(SSc2nccs2)n1 [31] = assay: Covalent inhibition of FBPase C92S mutant (unknown origin) assessed as Vmax measured upto 45 mins by UV-visible spectrometry analysis; conditions: Homo sapiens
c1csc(SSc2nccs2)n1 [32] = assay: Covalent inhibition of FBPase C183S (unknown origin) upto 45 mins; conditions: Homo sapiens; time min <=45
c1csc(SSc2nccs2)n1 [33] = assay: Covalent inhibition of FBPase C128S mutant (unknown origin) assessed as Vmax measured upto 45 mins by UV-visible spectrometry analysis; conditions: Homo sapiens; time min <=45
c1csc(SSc2nccs2)n1 [34] = assay: Covalent inhibition of FBPase Y258A mutant (unknown origin) assessed as Vmax measured upto 45 mins by UV-visible spectrometry analysis; conditions: Homo sapiens; time min <=45

S=C(SSC(=S)N1CCC1)N1CCC1
inhibition [1]: 28.5%

Clc1ccc(SSc2ccc(Cl)cc2)cc1
inhibition [1]: 18%

CN(C(=S)SSC(=S)N(C)c1ccc(-c2ccccc2)cc1)c1ccc(-c2ccccc2)cc1
inhibition [1]: 32.4%

c1ccc(SSc2ccccc2)cc1
inhibition [1]: 10.4%

C[C@@H]1CN(C(=S)SSC(=S)N2C[C@@H](C)O[C@@H](C)C2)C[C@H](C)O1
inhibition [1]: 37.7%

S=C(SSC(=S)N1CCCc2ccccc21)N1CCCc2ccccc21
inhibition [1]: 9.87%

CC(C)N(C(=S)SSC(=S)N(C(C)C)C(C)C)C(C)C
inhibition [1]: 47.8%

O=[N+]([O-])c1ccc2nc(SSc3nc4ccc([N+](=O)[O-])cc4s3)sc2c1
inhibition [1]: 18.4%

S=C(SSC(=S)N1CCc2ccccc21)N1CCc2ccccc21
inhibition [1]: 39.9%

CN1CCN(C(=S)SSC(=S)N2CCN(C)CC2)CC1
inhibition [1]: 26.2%

Cc1cccn1C(=S)SSC(=S)n1cccc1C
inhibition [1]: 29.4%

S=C(SSC(=S)N1CCc2ccccc2C1)N1CCc2ccccc2C1
inhibition [1]: 38.4%

S=C(SSC(=S)n1ncc2ccccc21)n1ncc2ccccc21
inhibition [1]: 47.6%

c1csc(SSc2nccs2)n1
Ratio IC50 (Homo sapiens [2]): 0.6
inhibition (Mus musculus [3]): Active
Ratio IC50 (Homo sapiens [4]): 0.5
inhibition (Mus musculus [5]): Active
Ratio IC50 (Homo sapiens [6]): 2.3
Ratio IC50 (Homo sapiens [7]): 1.7
Ratio IC50 (Homo sapiens [8]): 0.7
inhibition (Mus musculus [9]): Active
inhibition (Hepatocyte): Dose-dependent effect
Ratio IC50 (Homo sapiens [10]): 11.5
Ratio IC50 (Homo sapiens [11]): 0.7
Ratio IC50 (Homo sapiens [12]): > 926
Ratio IC50 (Homo sapiens [13]): > 1850
inhibition (Mus musculus [14]): Active
Ratio IC50 (Homo sapiens [15]): 0.7
Ratio IC50 (Homo sapiens [16]): > 1
Ratio IC50 (Homo sapiens [17]): 0.8
Ratio IC50 (Homo sapiens [18]): 1.1
inhibition (Mus musculus [19]): Active
lambda max [20]: 306 nm

CCN(CC)C(=S)SCSC(=S)N(CC)CC
inhibition [1]: 12.4%

CCN(CC)C(=S)SC(=S)N(CC)CC
inhibition [1]: 18%

Fructose-1,6-bisphosphatase 1 (Homo sapiens) (from UniProt P09467) UNDEFINED MUTATION
Vmax (c1csc(SSc2nccs2)n1 [21]): 1.6 U/mg
Vmax (c1csc(SSc2nccs2)n1 [22]): 2.5 U/mg
Vmax (c1csc(SSc2nccs2)n1 [23]): 1.9 U/mg
Vmax (c1csc(SSc2nccs2)n1 [24]): 1.5 U/mg
Vmax (c1csc(SSc2nccs2)n1 [25]): 5 U/mg
Vmax (c1csc(SSc2nccs2)n1 [26]): 3.5 U/mg
Vmax (c1csc(SSc2nccs2)n1 [27]): 3.6 U/mg
Vmax (c1csc(SSc2nccs2)n1 [28]): 3.8 U/mg
Vmax (c1csc(SSc2nccs2)n1 [29]): 2.7 U/mg
Vmax (c1csc(SSc2nccs2)n1 [30]): 2.3 U/mg
Vmax (c1csc(SSc2nccs2)n1 [31]): 1.6 U/mg
Vmax (c1csc(SSc2nccs2)n1 [32]): 0.21 U/mg
Vmax (c1csc(SSc2nccs2)n1 [33]): 2.7 U/mg
Vmax (c1csc(SSc2nccs2)n1 [34]): 5 U/mg

S=C(SSC(=S)N1CC2CCCCC2C1)N1CC2CCCCC2C1 (centres undefined)
inhibition [1]: 37.2%

c1csc(SSc2cccs2)c1
inhibition [1]: 50.6%

CCN(CC)C(=O)SSC(=O)N(CC)CC
inhibition [1]: 2.59%

S=C(SSC(=S)n1c2ccccc2c2ccccc21)n1c2ccccc2c2ccccc21
inhibition [1]: 39.7%

CCN(CC)C(=S)CSC(=S)N(CC)CC
inhibition [1]: 21.4%

CN(C(=S)SSC(=S)N(C)c1ccccc1)c1ccccc1
inhibition [1]: 35.7%

C1CCC(SSC2CCCCC2)CC1
inhibition [1]: 12.4%

CCCN(CCC)C(=S)SSC(=S)N(CCC)CCC
inhibition [1]: 13.6%

Cn1ccnc1SSc1nccn1C
inhibition [1]: 9.65%

c1csc(SSC2CCCC2)n1
inhibition [1]: 34.3%

COc1ccc2nc(SSc3nc4ccc(OC)cc4s3)sc2c1
inhibition [1]: 44.7%

S=C(SSC(=S)N1CCOCC1)N1CCOCC1
inhibition [1]: 26.1%

CCN(CC)C(=O)CSC(=S)N(CC)CC
inhibition [1]: 3.22%

O=C(O)C1CCN(C(=S)SSC(=S)N2CCC(C(=O)O)CC2)CC1
inhibition [1]: 47.6%

CN(Cc1ccccc1)C(=S)SSC(=S)N(C)Cc1ccccc1
inhibition [1]: 3.09%
